Reference: ChEMBL document CHEMBL4152293, “Synthesis and biological evaluation of podophyllotoxin derivatives as selective antitumor agents” (Eur J Med Chem, 2018)

What was measured:
[1] = test system: L02; assay: Induction of apoptosis in human L02 cells assessed as late apoptotic cells at 100 nM after 72 hrs by annexin V-FITC/propidium iodide staining-based flow cytometric method (reference value: 1.6%); assay type: cell-based; settings: l02, 72 h, 0.1 µM
[2] = test system: A549; assay: Induction of apoptosis in human A549 cells assessed as viable cells at 200 nM after 72 hrs by annexin V-FITC/propidium iodide staining-based flow cytometric method (reference value: 92.8%); assay type: functional; settings: A549, 72 h, read-out: Activity
[3] = test system: A549; assay: Induction of apoptosis in human A549 cells assessed as late apoptotic cells at 100 nM after 72 hrs by annexin V-FITC/propidium iodide staining-based flow cytometric method (reference value: 4.1%); assay type: functional
[4] = test system: L02; assay: Cell cycle arrest in human L02 cells assessed as accumulation at S phase at 10 nM after 72 hrs by propidium iodide staining-based flow cytometric method (reference value: 25.78%); assay type: ADME; settings: l02, 72 h, 0.01 µM
[5] = test system: A549; assay: Induction of apoptosis in human A549 cells assessed as necrotic cells at 100 nM after 72 hrs by annexin V-FITC/propidium iodide staining-based flow cytometric method (reference value: 0.1%); assay type: functional
[6] = test system: A549; assay: Cell cycle arrest in human A549 cells assessed as accumulation at S phase at 5 nM after 72 hrs by propidium iodide staining-based flow cytometric method (reference value: 24.48%); assay type: functional
[7] = test system: A549; assay: Induction of apoptosis in human A549 cells assessed as early apoptotic cells at 100 nM after 72 hrs by annexin V-FITC/propidium iodide staining-based flow cytometric method (reference value: 3%); assay type: functional
[8] = test system: A549; assay: Induction of apoptosis in human A549 cells after 72 hrs by annexin V-FITC/propidium iodide staining-based flow cytometric method; assay type: functional, cell-based
[9] = test system: L02; assay: Induction of apoptosis in human L02 cells assessed as late apoptotic cells at 10 nM after 72 hrs by annexin V-FITC/propidium iodide staining-based flow cytometric method (reference value: 1.6%); assay type: cell-based; settings: l02, 72 h, 0.01 µM
[10] = test system: L02; assay: Induction of apoptosis in human L02 cells assessed as early apoptotic cells at 100 nM after 72 hrs by annexin V-FITC/propidium iodide staining-based flow cytometric method (reference value: 2%); assay type: cell-based; settings: l02, 72 h, 0.1 µM
[11] = test system: L02; assay: Cell cycle arrest in human L02 cells assessed as accumulation at G0/G1 phase at 5 nM after 72 hrs by propidium iodide staining-based flow cytometric method (reference value: 57.34%); assay type: ADME; settings: l02, 72 h, 0.005 µM
[12] = test system: L02; assay: Induction of morphological changes in human L02 cells at 10 to 30 nM after 72 hrs by DAPI staining-based fluorescence microscopic method; assay type: cell-based; settings: l02, 72 h, 0.03 µM
[13] = Induction of apoptosis in human L02 cells assessed as viable cells at 200 nM after 72 hrs by annexin V-FITC/propidium iodide staining-based flow cytometric method (reference value: 96.3%); assay type: cell-based; settings: read-out: Activity
[14] = test system: L02; assay: Induction of apoptosis in human L02 cells assessed as necrotic cells at 10 nM after 72 hrs by annexin V-FITC/propidium iodide staining-based flow cytometric method (reference value: 0%); assay type: cell-based; settings: l02, 72 h, 0.01 µM
[15] = test system: L02; assay: Cell cycle arrest in human L02 cells assessed as accumulation at G0/G1 phase at 100 nM after 72 hrs by propidium iodide staining-based flow cytometric method (reference value: 57.34%); assay type: ADME; settings: l02, 72 h, 0.1 µM
[16] = test system: L02; assay: Induction of apoptosis in human L02 cells assessed as necrotic cells at 100 nM after 72 hrs by annexin V-FITC/propidium iodide staining-based flow cytometric method (reference value: 0%); assay type: cell-based; settings: l02, 72 h, 0.1 µM
[17] = test system: L02; assay: Cell cycle arrest in human L02 cells assessed as accumulation at G2/M phase at 10 nM after 72 hrs by propidium iodide staining-based flow cytometric method (reference value: 16.88%); assay type: ADME; settings: l02, 72 h, 0.01 µM
[18] = test system: A549; assay: Cytotoxicity against human A549 cells assessed as growth inhibition after 72 hrs by MTT assay; assay type: functional, cell-based; settings: A549, 72 h
[19] = test system: A549; assay: Cell cycle arrest in human A549 cells assessed as accumulation at G2/M phase at 10 nM after 72 hrs by propidium iodide staining-based flow cytometric method (reference value: 14.23%); assay type: functional
[20] = test system: A549; assay: Cell cycle arrest in human A549 cells assessed as accumulation at S phase at 100 nM after 72 hrs by propidium iodide staining-based flow cytometric method (reference value: 24.48%); assay type: functional
[21] = test system: L02; assay: Cell cycle arrest in human L02 cells assessed as accumulation at G2/M phase at 100 nM after 72 hrs by propidium iodide staining-based flow cytometric method (reference value: 16.88%); assay type: ADME; settings: l02, 72 h, 0.1 µM
[22] = test system: L02; assay: Induction of apoptosis in human L02 cells assessed as early apoptotic cells at 200 nM after 72 hrs by annexin V-FITC/propidium iodide staining-based flow cytometric method (reference value: 2%); assay type: cell-based; settings: l02, 72 h, 0.2 µM
[23] = test system: L02; assay: Cell cycle arrest in human L02 cells assessed as accumulation at S phase at 5 nM after 72 hrs by propidium iodide staining-based flow cytometric method (reference value: 25.78%); assay type: ADME; settings: l02, 72 h, 0.005 µM
[24] = Induction of apoptosis in human L02 cells assessed as viable cells at 100 nM after 72 hrs by annexin V-FITC/propidium iodide staining-based flow cytometric method (reference value: 96.3%); assay type: cell-based; settings: read-out: Activity
[25] = test system: A549; assay: Induction of apoptosis in human A549 cells assessed as late apoptotic cells at 10 nM after 72 hrs by annexin V-FITC/propidium iodide staining-based flow cytometric method (reference value: 4.1%); assay type: functional
[26] = test system: L02; assay: Cell cycle arrest in human L02 cells assessed as accumulation at G0/G1 phase at 10 nM after 72 hrs by propidium iodide staining-based flow cytometric method (reference value: 57.34%); assay type: ADME; settings: l02, 72 h, 0.01 µM
[27] = test system: A549; assay: Induction of apoptosis in human A549 cells assessed as necrotic cells at 200 nM after 72 hrs by annexin V-FITC/propidium iodide staining-based flow cytometric method (reference value: 0.1%); assay type: functional
[28] = test system: A549; assay: Induction of apoptosis in human A549 cells assessed as viable cells at 10 nM after 72 hrs by annexin V-FITC/propidium iodide staining-based flow cytometric method (reference value: 92.8%); assay type: functional; settings: A549, 72 h, read-out: Activity
[29] = Induction of apoptosis in human L02 cells assessed as viable cells at 10 nM after 72 hrs by annexin V-FITC/propidium iodide staining-based flow cytometric method (reference value: 96.3%); assay type: cell-based; settings: read-out: Activity
[30] = test system: L02; assay: Induction of apoptosis in human L02 cells assessed as early apoptotic cells at 10 nM after 72 hrs by annexin V-FITC/propidium iodide staining-based flow cytometric method (reference value: 2%); assay type: cell-based; settings: l02, 72 h, 0.01 µM
[31] = test system: A549; assay: Cell cycle arrest in human A549 cells assessed as accumulation at G0/G1 phase at 5 nM after 72 hrs by propidium iodide staining-based flow cytometric method (reference value: 61.29%); assay type: functional
[32] = test system: L02; assay: Cytotoxicity against human L02 cells assessed as growth inhibition after 72 hrs by MTT assay; assay type: cell-based; settings: L02, 72 h
[33] = test system: L02; assay: Induction of apoptosis in human L02 cells assessed as necrotic cells at 200 nM after 72 hrs by annexin V-FITC/propidium iodide staining-based flow cytometric method (reference value: 0%); assay type: cell-based; settings: l02, 72 h, 0.2 µM
[34] = test system: A549; assay: Cell cycle arrest in human A549 cells assessed as accumulation at G2/M phase at 5 nM after 72 hrs by propidium iodide staining-based flow cytometric method (reference value: 14.23%); assay type: functional
[35] = Selectivity index, ratio of IC50 for human L02 cells to IC50 for human A549 cells; assay type: toxicity; settings: L02 cells versus A549 cells, read-out: Ratio IC50

## COc1cc([C@@H]2c3cc4c(cc3[C@H](OC(=O)CN(C)C(=O)OC(C)(C)C)[C@H]3COC(=O)[C@H]23)OCO4)cc(OC)c1OC
[1]
  Activity: 2.1%
[2]
  viability at 0.2 µM: 5.1%
[3]
  Activity: 3%
[4]
  Activity: 24.59%
[5]
  Activity: 0%
[6]
  Activity: 26.07%
[7]
  Activity: 84.6%
[8]
  Activity: Dose-dependent effect
[9]
  Activity: 1.6%
[10]
  Activity: 10.6%
[11]
  Activity: 62.19%
[12]
  Activity: Non-Toxic
[13]
  viability at 72 h, 0.2 µM: 31.8%
[14]
  Activity: 0%
[15]
  Activity: 67.29%
[16]
  Activity: 0%
[17]
  Activity: 13.11%
[18]
  IC50: 9.5 nM
[19]
  Activity: 13.54%
[20]
  Activity: 47.13%
[21]
  Activity: 13.78%
[22]
  Activity: 65%
[23]
  Activity: 24.04%
[24]
  viability at 72 h, 0.1 µM: 87.3%
[25]
  Activity: 8.1%
[26]
  Activity: 62.3%
[27]
  Activity: 0%
[28]
  viability at 0.01 µM: 87.8%
[29]
  viability at 72 h, 0.01 µM: 94.1%
[30]
  Activity: 4.3%
[31]
  Activity: 60.2%
[32]
  IC50: 160 nM
[33]
  Activity: 0.1%
[34]
  Activity: 13.74%
[35]
  selectivity ratio: 16.9
